Columns and labels:
[1] = test system: antibodies in sera from SARS patients (sera 1a, 1b, 2, 6, 37, 62, London, SARS-yellow, SARS-green); assay type: binding, human; set-up: Binding of serum 6 to linear peptides of protein X1 of SARS-CoV Urbani / Binding of serum 37 to linear peptides of protein X1 of SARS-CoV Urbani / Binding of serum 6 to looped/cyclic peptide (PEPSCAN-ELISA) / Binding of serum 37 to looped/cyclic peptide (PEPSCAN-ELISA) / Binding of serum 37 to looped/cyclic peptides of protein X1 of SARS-CoV Urbani / Binding of serum 6 to linear peptides of protein X2 / Binding of serum 37 to linear peptides of protein X2 / Binding of serum 37 to looped/cyclic peptides of protein X2 of SARS-CoV Urbani / Binding of serum 6 to linear peptides of protein M of SARS-CoV Urbani / Binding of serum 37 to linear peptides of protein M of SARS-CoV Urbani / Binding of serum 6 to looped/cyclic peptides of protein M of SARS-CoV Urbani / Binding of serum 37 to looped/cyclic peptides of protein M of SARS-CoV Urbani / Binding of serum 6 to linear peptides of protein X3 of SARS-CoV Urbani / Binding of serum 37 to linear peptides of protein X3 of SARS-CoV Urbani / Binding of serum 37 to looped/cyclic peptides of protein X3 of SARS-CoV Urbani / Binding of serum 6 to linear peptides of protein X4 of SARS-CoV Urbani / Binding of serum 37 to linear peptides of protein X4 of SARS-CoV Urbani / Binding of serum 37 to looped/cyclic peptides of protein X4 of SARS-CoV Urbani / Binding of serum 6 to linear peptides of protein X5 of SARS-CoV Urbani / Binding of serum 37 to linear peptides of protein X5 of SARS-CoV Urbani / Binding of serum 37 to looped/cyclic peptides of protein X5 of SARS-CoV Urbani / Binding of serum 6 to linear peptides of protein N of SARS-CoV Urbani / Binding of serum 37 to linear peptides of protein N of SARS-CoV Urbani / Binding of serum 6 to linear peptide (PEPSCAN-ELISA) / Binding of serum 1a to looped/cyclic peptides of protein N of SARS-CoV Urbani / Binding of serum 1b to looped/cyclic peptides of protein N of SARS-CoV Urbani / Binding of serum 2 to looped/cyclic peptides of protein N of SARS-CoV Urbani / Binding of serum 6 to looped/cyclic peptides of protein N of SARS-CoV Urbani / Binding of serum 37 to looped/cyclic peptides of protein N of SARS-CoV Urbani / Binding of serum 62 to looped/cyclic peptides of protein N of SARS-CoV Urbani / Binding of serum London to looped/cyclic peptides of protein N of SARS-CoV Urbani / Binding of serum SARS-green to looped/cyclic peptides of protein N of SARS-CoV Urbani: unit not given here
[2] = test system: control sera (pooled serum of ten healthy LUMC hospital workers; commercial negative donor pooled serum from the Dutch bloodbank); assay type: binding, human; set-up: Binding of Control serum LUMC to linear peptides / Binding of Control serum Blood-bank to linear peptides / Binding of Control serum LUMC to looped peptides / Binding of Control Serum Blood-Bank to Looped peptides / Binding of Control serum LUMC to linear peptides of the protein M of SARS-CoV Urbani / Binding of Control serum Blood-bank to linear peptides of the protein M of SARS-CoV Urbani / Binding of Control serum LUMC to looped peptides of the protein M of SARS-CoV Urbani / Binding of Control Serum Blood-Bank to Looped peptides of the protein M of SARS-CoV Urbani: unit not given here
[3] = test system: rabbit serum obtained by immunizing a rabbit with the SARS-CoV strain Frankfurt 1; assay type: binding; set-up: Binding of a rabbit serum to linear peptides / Binding of a rabbit serum to looped peptides / Rabbit serum linear peptides / Rabbit serum looped peptides / Binding of a rabbit serum to linear peptides of protein N of SARS-CoV Urbani (Rabbit serum linear peptides) / Binding of a rabbit serum to looped/cyclic peptides of protein N of SARS-CoV Urbani (Rabbit serum looped peptides): unit not given here
[4] = test system: recombinant human anti-SARS-CoV antibody 03-018; assay type: binding; set-up: Binding of antibody 03-018 to linear peptides of the N protein of SARS-CoV Urbani / Binding of antibody 03-018 to looped/cyclic peptides of the N protein of SARS-CoV Urbani: unit not given here

| Sequence | Binding of serum 1a to linear peptides of protein N of SARS-CoV Urbani [1] | Binding of serum 1a to looped/cyclic peptides of protein N of SARS-CoV Urbani [1] | Binding of serum 1b to linear peptides of protein N of SARS-CoV Urbani [1] | Binding of serum 1b to looped/cyclic peptides of protein N of SARS-CoV Urbani [1] | Binding of serum 2 to linear peptides of protein N of SARS-CoV Urbani [1] | Binding of serum 2 to looped/cyclic peptides of protein N of SARS-CoV Urbani [1] | Binding of serum 6 to looped/cyclic peptides of protein N of SARS-CoV Urbani [1] | Binding of serum 37 to looped/cyclic peptides of protein N of SARS-CoV Urbani [1] | Binding of serum 62 to looped/cyclic peptides of protein N of SARS-CoV Urbani [1] | Binding of serum London to looped/cyclic peptides of protein N of SARS-CoV Urbani [1] | Binding of serum SARS-green to looped/cyclic peptides of protein N of SARS-CoV Urbani [1] | Binding of serum SARS-yellow to looped/cyclic peptides of protein N of SARS-CoV Urbani [1] | Binding of a rabbit serum to linear peptides of protein N of SARS-CoV Urbani (Rabbit serum linear peptides) [3] | Binding of a rabbit serum to looped/cyclic peptides of protein N of SARS-CoV Urbani (Rabbit serum looped peptides) [3] | Binding of antibody 03-018 to linear peptides of the N protein of SARS-CoV Urbani [4] | Binding of antibody 03-018 to looped/cyclic peptides of the N protein of SARS-CoV Urbani [4] | Binding of Control Serum Blood-Bank to Looped peptides [2] | Binding of Control serum Blood-bank to linear peptides [2] | Binding of Control serum LUMC to linear peptides [2] | Binding of Control serum LUMC to looped peptides [2] | further results |
| --- | --- | --- | --- | --- | --- | --- | --- | --- | --- | --- | --- | --- | --- | --- | --- | --- | --- | --- | --- | --- | --- |
| QFAPSASAFFGMSRI | 0.2 | 0.4 | 0.1 | 0.2 | 0.1 | 0.4 | 0.2 | 0.6 | 0.7 | 0.4 | 0.5 | 0.3 | 0.1 | 0.4 | 0.1 | 0.3 | – | – | – | – | Binding of serum 6 to linear peptides of protein N of SARS-CoV Urbani [1]: 0.1; Binding of serum 37 to linear peptides of protein N of SARS-CoV Urbani [1]: 0.4; Binding of serum 62 to linear peptides of protein N of SARS-CoV Urbani [1]: 0.4; Binding of serum London to linear peptides of protein N of SARS-CoV Urbani [1]: 0.4; Binding of serum SARS-green to linear peptides of protein N of SARS-CoV Urbani [1]: 0.1; Binding of serum SARS-yellow to linear peptides of protein N of SARS-CoV Urbani [1]: 0.5; Control Serum Blood-Bank Looped peptides [2]: 0.6; Control serum Blood-bank linear peptides [2]: 0.7; Control serum LUMC linear peptides [2]: 0.5; Control serum LUMC looped peptides [2]: 0.6 |
| QGLPNNTASWFTALT | 0.2 | 0.4 | 0.1 | 0.3 | 0.2 | 0.5 | 0.3 | 0.7 | 0.7 | 0.5 | 0.6 | 0.7 | 0.1 | 0.6 | 0.1 | 0.3 | 0.8 | 0.6 | 0.7 | 0.8 | Binding of serum 6 to linear peptides of protein N of SARS-CoV Urbani [1]: 0.1; Binding of serum 37 to linear peptides of protein N of SARS-CoV Urbani [1]: 0.6; Binding of serum 62 to linear peptides of protein N of SARS-CoV Urbani [1]: 0.7; Binding of serum London to linear peptides of protein N of SARS-CoV Urbani [1]: 0.4; Binding of serum SARS-green to linear peptides of protein N of SARS-CoV Urbani [1]: 0.2; Binding of serum SARS-yellow to linear peptides of protein N of SARS-CoV Urbani [1]: 0.6 |
| QGNFGDQDLIRQGTD | – | 0.4 | – | 0.3 | – | 0.3 | 0.2 | 0.6 | 0.5 | 0.4 | 0.7 | 0.6 | 0.2 | 0.4 | 0.1 | 0.2 | 0.5 | 0.6 | 0.7 | 0.6 | Binding of serum 1a to linear peptide (PEPSCAN-ELISA) [1]: 0.3; Binding of serum 1b to linear peptide (PEPSCAN-ELISA) [1]: 0.2; Binding of serum 2 to linear peptide (PEPSCAN-ELISA) [1]: 0.2; Binding of serum 6 to linear peptide (PEPSCAN-ELISA) [1]: 0.2; Binding of serum 37 to linear peptide (PEPSCAN-ELISA) [1]: 0.8; Binding of serum 62 to linear peptide (PEPSCAN-ELISA) [1]: 0.8; Binding of serum London to linear peptide (PEPSCAN-ELISA) [1]: 0.5; Binding of serum SARS-green to linear peptide (PEPSCAN-ELISA) [1]: 0.6; Binding of serum SARS-yellow to linear peptide (PEPSCAN-ELISA) [1]: 0.8 |
| QGQTVTKKSAAEASK | – | 0.2 | – | 0.1 | – | 0.2 | 0.1 | 0.4 | 0.2 | 0.3 | 0.1 | 0.2 | 0.2 | 0.2 | 0.1 | 0.2 | 0.4 | 1.1 | 1.0 | 0.4 | Recognition of the peptide by sera of SARS-CoV infected individuals, and form (linear, looped/cyclic) in which it is recognized [1]: recognized in linear form |

— patent US20070128217A1 (priority 2003, published 2007)
